Results as given in patent US8084592B2, “Multivalent entrain-and-amplify immunotherapeutics for carcinoma” (MannKind Corporation, priority 2005, dated 2011).
“Also recorded” adds a separate entry of the source. Blank lines part the entries; values can stand above or below the substance they belong to. Non-standard residues stand in square brackets, D forms with d. No end group written: not given here. Nle = CCCC[C@H](N)C(=O)O; Nva = CCC[C@H](N)C(=O)O

Experiments:
MHC class I (A2.1) = MHC class I (A2.1) (Homo sapiens, UniProt P04439, D140Y/D185E/D98H/E176V/E277Q/G131W/G231S/I119V/I121R/I166T/I218V/L300P/L318F/N151K/N90K/P208A/P217A/Q86G/Q94H/R138H/R169H/T345S); test: Binding characteristics (affinity, stability) of PSMA288-297 and analogs
[1] = tested on: T cells that recognized native PSMA288-297 peptide; test: Cross-reactive immunogenicity of PSMA288-297 analogs, IFN-γ ELISPOT; assay type: in vivo, HHD transgenic mice; conditions: 25 μg peptide + 12.5 μg pI:C per lymph node, day 0, 3, 14, 17
Procedure: Groups of HHD transgenic mice (n=8) were immunized with peptide (natural epitope PSMA288-297, or analogs bearing substitutions at primary or secondary anchor residues) by direct inoculation into the inguinal lymph nodes, with 25 μg in […]+12.5 μg of pI:C to each lymph node at day 0, 3, 14 and 17.
Mice were sacrificed at 10 days after the last boost, and splenocytes prepared and assessed for IFN-γ production by ELISPOT analysis. Various numbers of splenocytes/well were stimulated with 10 μg/ml of native peptide in ELISPOT plates coated with anti-IFN-γ antibody. At 48 hours after incubation, the assay was developed and the frequency of cytokine-producing T cells that recognized native PSMA288-297 peptide was automatically counted. The data is represented in FIG. 15 as the number of spot forming colonies/well (mean of triplicates+SD).

[2] = tested on: T cell line specific for the native epitope; test: Cross-reactivity of PSMA288-297 analogs: IFN-gamma secretion from T cell line; assay type: cell-based, HHD transgenic mice; conditions: stimulating with 10 μg/ml of analog (approximately 10 μM)
Source text: A methodology was devised to allow rapid and rational screening of peptide analogs in a fashion coherent with proposed methods of use and modeling the overall immunologic properties (Kon and Koff relative to MHC interaction and TCR binding properties in an integrated fashion). In some instances, the method included generating T cell lines against a natural (non-mutated) epitope (SSX-241-49), and using an immunization strategy potent enough to generate a useful response in transgenic mice carrying human MHC (such as the A2 allele). Peptide analogs were interrogated ex vivo in the presence of competent APCs and the functional impact of T cells specific for natural (non-mutated) epitopes measured. The evaluation was done at various concentrations of analog, because the expected effect was biphasic in the case of cross reactive peptides (activating at limited concentrations and inhibiting at higher concentrations, due to antigen-induced cell death, AICD). Measurement of the following three parameters were used to define basic and useful characteristics of peptide analogs: • 1. […]
(§1) The method used for the generation of T cell lines was the following: HHD transgenic mice carrying an A2 human allele (Pascolo et al., J. Exp Med. 185(12):2043-51, 1997, which is hereby incorporated herein by reference in its entirety) were immunized with 50 μg of SSX-2 natural epitope (41-49) admixed with 25 μg of plpC at day 0, 4, 14 and 18 by bilateral administration into the inguinal lymph nodes. […] The supernatant was harvested and the concentration of IFN-gamma assessed by standard methods such as ELISA.
Using the procedures described in application Ser. Nos. 11/455,278 and 11/454,633, each of which is hereby incorporated by reference in its entirety, the binding characteristics of PSMA288-297 and analogs were assessed in comparison to each other see (see FIG. 12). […] Cross reactivity with the native epitope was assessed by using the analog peptides to stimulate IFN-gamma secretion from a T cell line specific for the native epitope, essentially as described in Example 12. […]

[3] = tested on: T cell line specific for the native epitope; test: Cross-reactivity of PRAME425-433 analogs: IFN-gamma secretion from T cell line; assay type: cell-based, HHD transgenic mice; conditions: analog peptide at approximately 0.3 μM, normalized to native peptide
Source text: A methodology was devised to allow rapid and rational screening of peptide analogs in a fashion coherent with proposed methods of use and modeling the overall immunologic properties (Kon and Koff relative to MHC interaction and TCR binding properties in an integrated fashion). In some instances, the method included generating T cell lines against a natural (non-mutated) epitope (SSX-241-49), and using an immunization strategy potent enough to generate a useful response in transgenic mice carrying human MHC (such as the A2 allele). Peptide analogs were interrogated ex vivo in the presence of competent APCs and the functional impact of T cells specific for natural (non-mutated) epitopes measured. […]
as §1, with “ELISA. […]” for “ELISA.”

HLA-A*0201 = HLA-A*0201 (Homo sapiens, UniProt P04439, D140Y/D185E/D98H/E176V/E277Q/G131W/G231S/I119V/I121R/I166T/I218V/L300P/L318F/N151K/N90K/P208A/P217A/Q86G/Q94H/R138H/R169H/T345S); test: HLA-A*0201 binding characteristics of PRAME425-433 and analogs
Procedure: The positive control for binding was melan-A26-35 A27L. […] Cross reactivity with the native epitope was assessed by using the analog peptides to stimulate IFN-gamma secretion from a T cell line specific for the native epitope, essentially as described in Example 12. The data shown in FIGS. 16-18 were generated by stimulating with analog peptide at approximately 0.3 μM. […] In some cases, the reported values are the average of two determinations.

[4] = tested on: splenocytes responding to the PRAME425-433 peptide; test: Cross-reactive immunogenicity of PRAME analog, IFN-γ ELISA of splenocytes; assay type: in vivo, HHD transgenic mice; conditions: pCTLR2 plasmid prime, peptide boost 2.5 μg day 28 and 31, versus native peptide boost
Procedure: This was followed by two peptide boosts (2.5 μg) at day 28 and 31, of native peptide or the PRAME epitope analog L426Nva L433Nle.
Mice were sacrificed at 10 days after the last boost, and splenocytes prepared and assessed for IFN-γ production after in vitro stimulation at 0.5×10^6 cells/well, with 10 μg/ml of native peptide.

Substance: GLPSIPVHPI (homo sapien) [PSMA288-297, reference compound]
binding characteristics (MHC class I (A2.1)): generally superior binding characteristics
immunogenicity against the native epitope [1]: poorly immunogenic; also recorded: poor immunogenicity

Substance: GLPSIPVHPV [PSMA288-297 I297V]
IFN-gamma production (cross-reactivity) compared to native peptide [2]: increased the amount of IFN-gamma produced
immunogenicity against the native epitope [1]: increased priming of immune responses against the native epitope

Substance: PRAME425-433 C-terminal amide: PRAME425-433 with carboxy-terminus modified by the addition of an amide group (SLLQHLIGL-NH2)
IFN-γ production (cross-reactivity) compared to native peptide [3]: within twofold of the native peptide

Substance: PSMA288-297 P1 Abu: PSMA288-297 analog, Abu at P1
IFN-gamma production (cross-reactivity) compared to native peptide [2]: marginally similar cross-reactivity
immunogenicity against the native epitope [1]: slightly higher (but significant) activity than the native peptide

stability of binding (half-time of dissociation) compared to native peptide (MHC class I (A2.1)): improved the stability of binding
Substance: PSMA288-297 PO Nva: PSMA288-297 analog, Nva at PO
IFN-gamma production (cross-reactivity) compared to native peptide [2]: increased the amount of IFN-gamma produced
immunogenicity against the native epitope [1]: slightly higher (but significant) activity than the native peptide

Substance: SNvaLQHLIGNle (S[Nva]LQHLIG[Nle]) [L426Nva L433Nle]
binding characteristics (affinity and stability) (HLA-A*0201): similar, somewhat improved binding characteristics
IFN-γ production (cross-reactivity) compared to native peptide [3]: significant level of cross-reactivity
IFN-γ production in response to the PRAME425-433 peptide (ELISA) [4]: significant enhancement of IFN-γ production
